Assay results taken from ChEMBL document CHEMBL3525933 (Drug Metab Dispos, 2012).

What was measured:
[1] = AUC(0 to infinity) in streptozotocin-induced diabetic Wistar rat at 400 mg/kg, po administered as single dose by HPLC-DAD analysis; format: ADME, organism-based; set-up: time infinity, dose 400 mg/kg, route oral; conditions: plasma
[2] = AUC(0 to infinity) in pseudo-germ free Wistar rat at 400 mg/kg, po administered as single dose by HPLC-DAD analysis; format: ADME, organism-based; set-up: time infinity, dose 400 mg/kg, route oral; conditions: plasma
[3] = tested on: Plasma; assay: Drug metabolism in pseudo-germ free Wistar rat plasma assessed as norathyriol metabolite formation at 400 mg/kg, po administered as single dose by HPLC-DAD analysis; format: ADME, organism-based; set-up: dose 400 mg/kg, route oral; conditions: in vivo
[4] = tested on: Plasma; assay: Drug recovery in Wistar rat plasma at 100 ng/ml by HPLC-DAD analysis; format: ADME, cell-free
[5] = Cmax in pseudo-germ free Wistar rat at 400 mg/kg, po administered as single dose by HPLC-DAD analysis; format: ADME, organism-based; set-up: dose 400 mg/kg, route oral; conditions: in vivo
[6] = Apparent oral clearance in pseudo-germ free Wistar rat at 400 mg/kg, po administered as single dose by HPLC-DAD analysis; format: ADME, organism-based; set-up: dose 400 mg/kg, route oral; conditions: in vivo
[7] = Cmax in conventional Wistar rat at 400 mg/kg, po administered as single dose by HPLC-DAD analysis; format: ADME, organism-based; set-up: dose 400 mg/kg, route oral; conditions: in vivo
[8] = AUC(0 to t) in streptozotocin-induced diabetic Wistar rat at 400 mg/kg, po administered as single dose by HPLC-DAD analysis; format: ADME, organism-based; set-up: dose 400 mg/kg, route oral; conditions: plasma
[9] = tested on: Plasma; assay: Drug recovery in Wistar rat plasma at 500 ng/ml by HPLC-DAD analysis; format: ADME, cell-free
[10] = Drug excretion in conventional Wistar rat feces assessed as 1,7-dihydroxyxanthone metabolite level at 400 mg/kg, po administered as single dose by HPLC-DAD analysis; format: ADME, organism-based; set-up: dose 400 mg/kg, route oral; conditions: in vivo
[11] = Elimination half life in conventional Wistar rat at 400 mg/kg, po administered as single dose by HPLC-DAD analysis; format: ADME, organism-based; set-up: dose 400 mg/kg, route oral; conditions: in vivo, read-out: beta t1/2 (converted)
[12] = Tmax in streptozotocin-induced diabetic Wistar rat at 400 mg/kg, po administered as single dose by HPLC-DAD analysis; format: ADME, organism-based; set-up: dose 400 mg/kg, route oral; conditions: in vivo
[13] = Elimination half life in pseudo-germ free Wistar rat at 400 mg/kg, po administered as single dose by HPLC-DAD analysis; format: ADME, organism-based; set-up: dose 400 mg/kg, route oral; conditions: in vivo, read-out: beta t1/2 (converted)
[14] = tested on: Plasma; assay: Drug uptake in streptozotocin-induced diabetic Wistar rat plasma at 400 mg/kg, po administered as single dose by HPLC-DAD analysis; format: ADME, organism-based; set-up: dose 400 mg/kg, route oral; conditions: in vivo
[15] = AUC(0 to t) in conventional Wistar rat at 400 mg/kg, po administered as single dose by HPLC-DAD analysis; format: ADME, organism-based; set-up: dose 400 mg/kg, route oral; conditions: plasma
[16] = Drug excretion in conventional Wistar rat feces assessed as norathyriol metabolite level at 400 mg/kg, po administered as single dose by HPLC-DAD analysis; format: ADME, organism-based; set-up: dose 400 mg/kg, route oral; conditions: in vivo
[17] = MRT(0 to t) in streptozotocin-induced diabetic Wistar rat at 400 mg/kg, po administered as single dose by HPLC-DAD analysis; format: ADME, organism-based; set-up: dose 400 mg/kg, route oral; conditions: in vivo
[18] = tested on: Plasma; assay: Drug metabolism in conventional Wistar rat plasma assessed as norathyriol metabolite formation at 400 mg/kg, po administered as single dose by HPLC-DAD analysis; format: ADME, organism-based; set-up: dose 400 mg/kg, route oral; conditions: in vivo
[19] = Drug excretion in conventional Wistar rat urine assessed as norathyriol metabolite level at 400 mg/kg, po administered as single dose by HPLC-DAD analysis; format: ADME, organism-based; set-up: dose 400 mg/kg, route oral; conditions: in vivo
[20] = Drug excretion in conventional Wistar rat urine assessed as unchanged drug level at 400 mg/kg, po administered as single dose by HPLC-DAD analysis; format: ADME, organism-based; set-up: dose 400 mg/kg, route oral; conditions: in vivo
[21] = Drug excretion in pseudo-germ free Wistar rat feces assessed as unchanged drug level at 400 mg/kg, po administered as single dose by HPLC-DAD analysis; format: ADME, organism-based; set-up: dose 400 mg/kg, route oral; conditions: in vivo
[22] = organism: Rattus norvegicus; assay: Drug retention time in Wistar rat by HPLC-DAD analysis; format: ADME, organism-based
[23] = MRT(0 to infinity) in pseudo-germ free Wistar rat at 400 mg/kg, po administered as single dose by HPLC-DAD analysis; format: ADME, organism-based; set-up: dose 400 mg/kg, route oral; conditions: in vivo
[24] = Drug excretion in conventional Wistar rat urine assessed as 1,7-dihydroxyxanthone metabolite level at 400 mg/kg, po administered as single dose by HPLC-DAD analysis; format: ADME, organism-based; set-up: dose 400 mg/kg, route oral; conditions: in vivo
[25] = tested on: Plasma; assay: Drug metabolism in streptozotocin-induced diabetic Wistar rat plasma assessed as norathyriol metabolite formation at 400 mg/kg, po administered as single dose by HPLC-DAD analysis; format: ADME, organism-based; set-up: dose 400 mg/kg, route oral; conditions: in vivo
[26] = Elimination half life in streptozotocin-induced diabetic Wistar rat at 400 mg/kg, po administered as single dose by HPLC-DAD analysis; format: ADME, organism-based; set-up: dose 400 mg/kg, route oral; conditions: in vivo, read-out: beta t1/2 (converted)
[27] = Drug excretion in streptozotocin-induced diabetic Wistar rat urine assessed as 1,7-dihydroxyxanthone metabolite level at 400 mg/kg, po administered as single dose by HPLC-DAD analysis; format: ADME, organism-based; set-up: dose 400 mg/kg, route oral; conditions: in vivo
[28] = Drug excretion in pseudo-germ free Wistar rat feces assessed as norathyriol metabolite level at 400 mg/kg, po administered as single dose by HPLC-DAD analysis; format: ADME, organism-based; set-up: dose 400 mg/kg, route oral; conditions: in vivo
[29] = Tmax in conventional Wistar rat at 400 mg/kg, po administered as single dose by HPLC-DAD analysis; format: ADME, organism-based; set-up: dose 400 mg/kg, route oral; conditions: in vivo
[30] = MRT(0 to infinity) in streptozotocin-induced diabetic Wistar rat at 400 mg/kg, po administered as single dose by HPLC-DAD analysis; format: ADME, organism-based; set-up: dose 400 mg/kg, route oral; conditions: in vivo

AUC(0-inf) [1]: 8950 ng·h/mL | AUC(0-inf) [2]: 4340 ng·h/mL | Drug metabolism [3]: metabolite_not_detected | Drug recovery [4]: 78.4% | Cmax [5]: 452 ng/mL | CL/F [6]: 1690 mL/min/kg | Cmax [7]: 715 ng/mL | AUC(0-t) [8]: 8930 ng·h/mL | Drug recovery [9]: 75.5% | Drug excretion [10]: metabolite_not_detected | half-life [11]: 2.47 h | Tmax [12]: 2.25 h | half-life [13]: 2.59 h | Drug uptake [14]: Active | AUC(0-t) [15]: 3800 ng·h/mL | Drug excretion [16]: metabolite_detected | MRT last [17]: 5.4 h | Drug metabolism [18]: metabolite_not_detected | Drug excretion [19]: metabolite_detected | Drug excretion [20]: metabolite_detected | Drug excretion [21]: metabolite_detected | Retention_time [22]: 15.2 min | MRT inf [23]: 7.52 h | Drug excretion [24]: metabolite_not_detected | Drug metabolism [25]: metabolite_not_detected | half-life [26]: 2.6 h | Drug excretion [27]: metabolite_detected | Drug excretion [28]: metabolite_not_detected | Tmax [29]: 0.73 h | MRT inf [30]: 5.45 h
SMILES: O=c1c2cc(O)c(O)cc2oc2cc(O)c([C@@H]3O[C@H](CO)[C@@H](O)[C@H](O)[C@H]3O)c(O)c12 [MANGIFERIN]
